Literature values as cited in US20020028808A1, “Use of potassium channel agonists for the treatment of cancer” (priority 2000, published 2002).
Where two headings read alike, the source gives them in different places.

Tests used:
[1] = system: adipose tissue of Zucker rats
[2] = target: T1, KATP-channels on pancreatic beta-cells (Homo sapiens, UniProt Q09428+Q14654); conditions: by activation of KATP-channels
T1 construct: KATP-channels on pancreatic beta-cells; host or cells: pancreatic beta-cells
T1 sequence (Q09428 whole entry): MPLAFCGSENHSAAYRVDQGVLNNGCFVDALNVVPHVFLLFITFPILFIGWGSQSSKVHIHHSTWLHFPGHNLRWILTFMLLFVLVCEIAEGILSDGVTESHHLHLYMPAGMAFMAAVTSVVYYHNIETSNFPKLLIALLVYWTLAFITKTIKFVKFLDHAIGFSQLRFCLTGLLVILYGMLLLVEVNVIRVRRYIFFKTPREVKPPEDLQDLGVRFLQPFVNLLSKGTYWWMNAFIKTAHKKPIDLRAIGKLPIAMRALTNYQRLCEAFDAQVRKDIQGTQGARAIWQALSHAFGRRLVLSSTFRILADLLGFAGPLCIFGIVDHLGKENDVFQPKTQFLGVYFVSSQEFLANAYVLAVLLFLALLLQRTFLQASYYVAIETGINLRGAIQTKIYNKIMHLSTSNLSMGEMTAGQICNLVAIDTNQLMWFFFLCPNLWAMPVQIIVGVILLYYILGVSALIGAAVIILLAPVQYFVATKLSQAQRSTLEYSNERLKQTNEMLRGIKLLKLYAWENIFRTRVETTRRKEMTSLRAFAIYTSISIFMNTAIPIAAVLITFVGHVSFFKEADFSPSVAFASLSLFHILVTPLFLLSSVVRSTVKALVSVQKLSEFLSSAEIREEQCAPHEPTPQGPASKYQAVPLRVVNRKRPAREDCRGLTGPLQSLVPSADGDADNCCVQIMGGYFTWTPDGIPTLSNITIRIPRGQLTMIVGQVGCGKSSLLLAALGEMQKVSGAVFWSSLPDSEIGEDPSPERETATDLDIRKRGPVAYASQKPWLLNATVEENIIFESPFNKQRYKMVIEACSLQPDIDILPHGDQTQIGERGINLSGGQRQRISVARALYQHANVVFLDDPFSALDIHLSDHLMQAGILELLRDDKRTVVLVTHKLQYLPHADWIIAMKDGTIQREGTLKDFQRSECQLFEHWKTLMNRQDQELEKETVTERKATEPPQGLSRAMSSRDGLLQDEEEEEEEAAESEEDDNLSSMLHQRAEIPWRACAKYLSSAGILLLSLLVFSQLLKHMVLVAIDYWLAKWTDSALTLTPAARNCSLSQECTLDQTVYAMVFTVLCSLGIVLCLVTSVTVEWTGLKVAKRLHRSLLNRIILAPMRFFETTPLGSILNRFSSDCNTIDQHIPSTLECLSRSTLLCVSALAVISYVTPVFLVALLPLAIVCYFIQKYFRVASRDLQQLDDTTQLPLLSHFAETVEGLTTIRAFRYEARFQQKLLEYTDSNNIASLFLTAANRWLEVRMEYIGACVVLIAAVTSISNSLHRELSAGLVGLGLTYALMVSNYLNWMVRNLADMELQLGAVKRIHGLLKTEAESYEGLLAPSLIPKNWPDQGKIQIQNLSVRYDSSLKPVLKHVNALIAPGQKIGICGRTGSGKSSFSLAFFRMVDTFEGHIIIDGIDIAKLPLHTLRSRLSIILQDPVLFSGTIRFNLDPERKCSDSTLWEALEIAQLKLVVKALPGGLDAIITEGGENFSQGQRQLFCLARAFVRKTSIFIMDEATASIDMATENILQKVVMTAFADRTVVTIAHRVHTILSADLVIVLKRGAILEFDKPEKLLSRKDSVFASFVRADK
T1 sequence (Q14654 whole entry): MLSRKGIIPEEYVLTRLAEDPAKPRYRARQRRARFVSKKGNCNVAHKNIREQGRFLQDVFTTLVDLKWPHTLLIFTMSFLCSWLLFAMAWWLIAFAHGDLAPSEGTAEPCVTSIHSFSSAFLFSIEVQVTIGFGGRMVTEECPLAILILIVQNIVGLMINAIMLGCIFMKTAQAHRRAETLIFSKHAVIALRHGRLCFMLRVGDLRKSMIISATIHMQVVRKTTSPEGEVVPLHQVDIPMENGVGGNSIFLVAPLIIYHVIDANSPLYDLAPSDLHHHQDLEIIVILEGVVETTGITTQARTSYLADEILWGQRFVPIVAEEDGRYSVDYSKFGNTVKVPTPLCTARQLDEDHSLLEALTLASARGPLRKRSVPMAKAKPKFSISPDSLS

[3] = system: patients suffering from insulinoma and nesidioblastosis

## CC1=Nc2ccc(Cl)cc2S(=O)(=O)N1 [diazoxide, 7-chloro-3-methyl-2H-1,2,4-benzothiadiazine 1,1-dioxide]
[1]
  leptin and lipid metabolising enzymes: down-regulate leptin and lipid metabolising enzymes
Healthy individuals
  glucose stimulated insulin release: reduces glucose stimulated insulin release
[2]
  insulin release: inhibit insulin release
[3]; nesidioblastosis (PHHI, persistent hyperinsulinaemia and hypoglycemia of infancy)
  abnormal hyperinsulinaemia: ameliorates the abnormal hyperinsulinaemia
[3]; patients suffering from insulinoma
  abnormal hyperinsulinaemia: ameliorates the abnormal hyperinsulinaemia
